Reference: US20230065740A1, “CYCLIN-DEPENDENT KINASE INHIBITORS” (SPV THERAPEUTICS INC., priority 2018, published 2023)
Read-outs that look alike come from different tables or passages of the source.

How the values were obtained:
CDK4-CYCLIND1 = CDK4-CYCLIND1 (Homo sapiens, UniProt P11802); assay: Microfluidic LabChip kinase inhibition assay, CDK4-CyclinD1; settings: 200 μM ATP
CDK6-CYCLIND3 = biological target: T1, CDK6-CYCLIND3 (Homo sapiens, UniProt Q00534); assay: Microfluidic LabChip kinase inhibition assay, CDK6-CyclinD3; assay type: biochemical; settings: 300 μM ATP
T1 construct: purchased Carna

[1] = CDK4 CyclinD1 IC50 (μM), Table 3a, second value in parentheses on the next line
[2] = CDK4 CyclinD1 IC50 (μM), Table 3b, second value in parentheses on the next line
[3] = Table 3a, read-out: CDK6 CyclinD3 IC50
[4] = Table 3b, read-out: CDK6 CyclinD3 IC50
[5] = CDK4 IC50 (μM), Table 2, 1 nM enzyme
[6] = Table 2, 2 nM enzyme, read-out: CDK6 IC50

T1 sequence (Q00534 whole entry): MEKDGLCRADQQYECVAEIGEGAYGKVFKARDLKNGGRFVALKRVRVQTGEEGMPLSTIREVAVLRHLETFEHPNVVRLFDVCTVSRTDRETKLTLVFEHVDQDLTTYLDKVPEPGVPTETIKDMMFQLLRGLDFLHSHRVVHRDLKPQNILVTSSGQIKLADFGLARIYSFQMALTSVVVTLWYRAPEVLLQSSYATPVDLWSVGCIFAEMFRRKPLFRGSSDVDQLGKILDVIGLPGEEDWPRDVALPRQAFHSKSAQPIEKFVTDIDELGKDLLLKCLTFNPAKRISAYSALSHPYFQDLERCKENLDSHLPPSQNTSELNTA
T1 sequence (P30281 whole entry partner): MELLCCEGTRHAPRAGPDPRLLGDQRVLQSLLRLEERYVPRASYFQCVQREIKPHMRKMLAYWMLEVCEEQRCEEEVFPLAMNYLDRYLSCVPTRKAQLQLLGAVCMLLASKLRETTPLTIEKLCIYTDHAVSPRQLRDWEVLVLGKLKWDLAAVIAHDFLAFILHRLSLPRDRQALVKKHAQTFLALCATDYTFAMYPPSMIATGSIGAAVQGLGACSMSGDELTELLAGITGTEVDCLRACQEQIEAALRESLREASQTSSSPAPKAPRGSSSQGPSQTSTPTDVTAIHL
Chain of CDK4-CYCLIND1 (P11802 whole entry): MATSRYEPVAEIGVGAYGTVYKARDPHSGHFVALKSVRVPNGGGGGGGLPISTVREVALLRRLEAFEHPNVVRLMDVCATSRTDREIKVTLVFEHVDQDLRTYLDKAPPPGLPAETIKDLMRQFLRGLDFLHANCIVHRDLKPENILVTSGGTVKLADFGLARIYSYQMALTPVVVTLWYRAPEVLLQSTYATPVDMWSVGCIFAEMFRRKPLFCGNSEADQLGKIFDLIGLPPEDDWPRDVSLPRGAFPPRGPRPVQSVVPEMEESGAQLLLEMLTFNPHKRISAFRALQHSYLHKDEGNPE
Chain of CDK4-CYCLIND1 (P24385 whole entry partner): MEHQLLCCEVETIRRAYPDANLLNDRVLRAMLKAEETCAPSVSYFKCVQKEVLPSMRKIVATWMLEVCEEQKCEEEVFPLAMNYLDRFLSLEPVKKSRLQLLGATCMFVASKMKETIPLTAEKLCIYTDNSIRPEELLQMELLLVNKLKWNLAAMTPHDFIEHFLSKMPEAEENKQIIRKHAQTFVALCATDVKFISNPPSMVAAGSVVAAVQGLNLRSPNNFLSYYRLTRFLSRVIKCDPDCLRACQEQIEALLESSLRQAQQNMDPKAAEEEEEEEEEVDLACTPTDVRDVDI

IC50 (CDK4-CYCLIND1; [5]) [µM]	IC50 (CDK6-CYCLIND3; [6]) [µM]	SMILES	IC50 (CDK4-CYCLIND1; [1]) [µM]	IC50 (CDK4-CYCLIND1; [2]) [µM]	IC50 (CDK6-CYCLIND3; [3]) [µM]	IC50 (CDK6-CYCLIND3; [4]) [µM]
		O=C1NCCC12Cc1cnc(Nc3ccc(N4CCNCC4)c(F)c3)nc1N2C1CCCC1 (single isomer, unassigned) [Compound C203, 7′-cyclopentyl-2′-((3-fluoro-4-(piperazin-1-yl)phenyl)amino)-5′,7′-dihydrospiro[pyrrolidine-3,6′-pyrrolo[2,3-d]pyrimidin]-2-one]	0.0245	0.0245	0.104	0.104
		O=C1NCCC12Cc1cnc(Nc3ccc(N4CCNCC4)c(F)c3)nc1N2C1CCCC1 (single isomer, unassigned) [Compound C204, 7′-cyclopentyl-2′-((3-fluoro-4-(piperazin-1-yl)phenyl)amino)-5′,7′-dihydrospiro[pyrrolidine-3,6′-pyrrolo[2,3-d]pyrimidin]-2-one]	2.03	2.03	11.8	11.8
		CN1CCN(c2ccc(Nc3ncc4c(n3)N(C3CCCC3)C3(CCNC3=O)C4)cc2F)CC1 (single isomer, unassigned) [Compound C205, 7′-cyclopentyl-2′-((3-fluoro-4-(4-methylpiperazin-1-yl)phenyl)amino)-5′,7′-dihydrospiro[pyrrolidine-3,6′-pyrrolo[2,3-d]pyrimidin]-2-one]	0.0413	0.0413	0.179	0.179
		CN1CCN(c2ccc(Nc3ncc4c(n3)N(C3CCCC3)C3(CCNC3=O)C4)cc2F)CC1 (single isomer, unassigned) [Compound C206, 7′-cyclopentyl-2′-((3-fluoro-4-(4-methylpiperazin-1-yl)phenyl)amino)-5′,7′-dihydrospiro[pyrrolidine-3,6′-pyrrolo[2,3-d]pyrimidin]-2-one]	5.14	5.14	15.8	15.8
4.74	19.1	CN1CCN(c2ccc(Nc3ncc4c(n3)N(C3CCCC3)C3(CCN(C)C3=O)C4)cc2)CC1 (stereo not shown) [Compound C1, 7′-cyclopentyl-1-methyl-2′-((4-(4-methylpiperazin-1-yl)phenyl)amino)-5′,7′-dihydrospiro[pyrrolidine-3,6′-pyrrolo[2,3-d]pyrimidin]-2-one]				
5.16	23.8	CN1CCC2(Cc3cnc(Nc4ccc(N5CCNCC5)cc4)nc3N2C2CCCC2)C1=O (stereo not shown) [Compound C2, 7′-cyclopentyl-1-methyl-2′-((4-(piperazin-1-yl)phenyl)amino)-5′,7′-dihydrospiro[pyrrolidine-3,6′-pyrrolo[2,3-d]pyrimidin]-2-one]				
> 30	> 30	CC(C)N1CCN(c2ccc(Nc3ncc4c(n3)N(C3CCCC3)C3(CCN(C)C3=O)C4)nc2)CC1 (stereo not shown) [Compound C3, 7′-cyclopentyl-2′-((5-(4-isopropylpiperazin-1-yl)pyridin-2-yl)amino)-1-methyl-5′,7′-dihydrospiro[pyrrolidine-3,6′-pyrrolo[2,3-d]pyrimidin]-2-one]				
> 30	> 30	CN(C)CCOc1ccc(Nc2ncc3c(n2)N(C2CCCC2)C2(CCN(C)C2=O)C3)nc1 (stereo not shown) [Compound C4, 7′-cyclopentyl-2′-((5-(2-(dimethylamino)ethoxy)pyridin-2-yl)amino)-1-methyl-5′,7′-dihydrospiro[pyrrolidine-3,6′-pyrrolo[2,3-d]pyrimidin]-2-one]				
> 30	> 30	CN1CCC2(Cc3cnc(Nc4ccc(OCCN5CCCC5)cn4)nc3N2C2CCCC2)C1=O (stereo not shown) [Compound C5, 7′-cyclopentyl-1-methyl-2′-((5-(2-(pyrrolidin-1-yl)ethoxy)pyridin-2-yl)amino)-5′,7′-dihydrospiro[pyrrolidine-3,6′-pyrrolo[2,3-d]pyrimidin]-2-one]				
> 30	> 30	CN1CCC2(Cc3cnc(Nc4ccc(OCCN5CCCCC5)cn4)nc3N2C2CCCC2)C1=O (stereo not shown) [Compound C6, 7′-cyclopentyl 1-methyl-2′-((5-(2-(piperidin-1-yl)ethoxy)pyridin-2-yl)amino)-5′,7′-dihydrospiro[pyrrolidine-3,6′-pyrrolo[2,3-d]pyrimidin]-2-one]				
> 30	> 30	CN1CCN(c2ccc(Nc3ncc4c(n3)N(C3CCCC3)C3(CCCN(C)C3=O)C4)cc2)CC1 (stereo not shown) [Compound C7, 7′-cyclopentyl-1-methyl-2′-((4-(4-methylpiperazin-1-yl)phenyl)amino)-5′,7′-dihydrospiro[piperidine-3,6′-pyrrolo[2,3-d]pyrimidin]-2-one]				
> 30	> 30	CN1CCCC2(Cc3cnc(Nc4ccc(N5CCNCC5)cc4)nc3N2C2CCCC2)C1=O (stereo not shown) [Compound C8, 7′-cyclopentyl-1-methyl-2′-((4-(piperazin-1-yl)phenyl)amino)-5′,7′-dihydrospiro[piperidine-3,6′-pyrrolo[2,3-d]pyrimidin]-2-one]				
> 30	> 30	CC(C)N1CCN(c2ccc(Nc3ncc4c(n3)N(C3CCCC3)C3(CCCN(C)C3=O)C4)nc2)CC1 (stereo not shown) [Compound C9, 7′-cyclopentyl-2′-((5-(4-isopropylpiperazin-1-yl)pyridin-2-yl)amino)-1-methyl-5′,7′-dihydrospiro[piperidine-3,6′-pyrrolo[2,3-d]pyrimidin]-2-one]				
> 30	> 30	CN1CCCC2(Cc3cnc(Nc4ccc(OCCN5CCCC5)cn4)nc3N2C2CCCC2)C1=O (stereo not shown) [Compound C10, 7′-cyclopentyl-1-methyl-2′-((5-(2-(pyrrolidin-1-yl)ethoxy)pyridin-2-yl)amino)-5′,7′-dihydrospiro[piperidine-3,6′-pyrrolo[2,3-d]pyrimidin]-2-one]				
> 30	> 30	CN1CCCC2(Cc3cnc(Nc4ccc(OCCN5CCCCC5)cn4)nc3N2C2CCCC2)C1=O (stereo not shown) [Compound C11, 7′-cyclopentyl-1-methyl-2′-((5-(2-(piperidin-1-yl)ethoxy)pyridin-2-yl)amino)-5′,7′-dihydrospiro[piperidine-3,6′-pyrrolo[2,3-d]pyrimidin]-2-one]				
1.96	> 30	COc1ccc(CN2CCC3(Cc4cnc(Nc5ccc(N6CCN(C)CC6)cc5)nc4N3C3CCCC3)C2=O)cc1 (stereo not shown) [Compound C12, 7′-cyclopentyl-1-(4-methoxybenzyl)-2′-((4-(4-methylpiperazin-1-yl)phenyl)amino)-5′,7′-dihydrospiro[pyrrolidine-3,6′-pyrrolo[2,3-d]pyrimidin]-2-one]				
> 30	> 30	CN1CCN(c2cnc(Nc3ncc4c(n3)N(C3CCCC3)C3(CCN(C)C3=O)C4)cc2C(F)(F)F)CC1 (stereo not shown) [Compound C13, 7′-cyclopentyl-1-methyl-2′-((5-(4-methylpiperazin-1-yl)-4-(trifluoromethyl)pyridin-2-yl)amino)-5′,7′-dihydrospiro[pyrrolidine-3,6′-pyrrolo[2,3-d]pyrimidin]-2-one]				
> 30	> 30	CN1CCCC2(Cc3cnc(Nc4cc(C(F)(F)F)c(N5CCNCC5)cn4)nc3N2C2CCCC2)C1=O (stereo not shown) [Compound C14, 7′-cyclopentyl-1-methyl-2′-((5-(piperazin-1-yl)-4-(trifluoromethyl)pyridin-2-yl)amino)-5′,7′-dihydrospiro[piperidine-3,6′-pyrrolo[2,3-d]pyrimidin]-2-one]				
> 30	> 30	CN1CCC2(Cc3cnc(Nc4cc(C(F)(F)F)c(N5CCNCC5)cn4)nc3N2C2CCCC2)C1=O (stereo not shown) [Compound C15, 7′-cyclopentyl-1-methyl-2′-((5-(piperazin-1-yl)-4-(trifluoromethyl)pyridin-2-yl)amino)-5′,7′-dihydrospiro[pyrrolidine-3,6′-pyrrolo[2,3-d]pyrimidin]-2-one]				
13.1	> 30	COc1ccc(CN2CCC3(Cc4cnc(Nc5cc(C(F)(F)F)c(N6CCNCC6)cn5)nc4N3C3CCCC3)C2=O)cc1 (stereo not shown) [Compound C16, 7′-cyclopentyl-1-(4-methoxybenzyl)-2′-((5-(piperazin-1-yl)-4-(trifluoromethyl)pyridin-2-yl)amino)-5′,7′-dihydrospiro[pyrrolidine-3,6′-pyrrolo[2,3-d]pyrimidin]-2-one]				
18.8	> 30	O=C1NCCC12Cc1cnc(Nc3cc(C(F)(F)F)c(N4CCNCC4)cn3)nc1N2C1CCCC1 (stereo not shown) [Compound C17, 7′-cyclopentyl-2′-((5-(piperazin-1-yl)-4-(trifluoromethyl)pyridin-2-yl)amino)-5′,7′-dihydrospiro[pyrrolidine-3,6′-pyrrolo[2,3-d]pyrimidin]-2-one]				
> 30	> 30	CN1CCN(c2cnc(Nc3ncc4c(n3)N(C3CCCC3)C3(CCNC3=O)C4)cc2C(F)(F)F)CC1 (stereo not shown) [Compound C18, 7′-cyclopentyl-2′-((5-(4-methylpiperazin-1-yl)-4-(trifluoromethyl)pyridin-2-yl)amino)-5′,7′-dihydrospiro[pyrrolidine-3,6′-pyrrolo[2,3-d]pyrimidin]-2-one]				
57.6		CN1CCN(c2ccc(Nc3ncc4c(n3)N(C3CCCC3)CC43CCNC3=O)nc2)CC1 (stereo not shown) [Compound C98, 7′-cyclopentyl-2′-((5-(4-methylpiperazin-1-yl)pyridin-2-yl)amino)-6′,7′-dihydrospiro[pyrrolidine-3,5′-pyrrolo[2,3-d]pyrimidin]-2-one]				
59.4		O=C1NCCC12C(=O)N(C1CCCC1)c1nc(Nc3ccc(N4CCNCC4)cn3)ncc12 (stereo not shown) [Compound C99, 7′-cyclopentyl-2′-((5-(piperazin-1-yl)pyridin-2-yl)amino)spiro[pyrrolidine-3,5′-pyrrolo[2,3-d]pyrimidine]-2,6′(7′H)-dione]				
51		CC(C)N1CCN(c2ccc(Nc3ncc4c(n3)N(C3CCCC3)C(=O)C43CCNC3=O)cc2F)CC1 (stereo not shown) [Compound C104, 7′-cyclopentyl-2′-((3-fluoro-4-(4-isopropylpiperazin-1-yl)phenyl)amino)spiro[pyrrolidine-3,5′-pyrrolo[2,3-d]pyrimidine]-2,6′(7′H)-dione]				
